# Measurements: US8569450B2, “CD3 epsilon immunogens and antibodies” (Health Research Inc., priority 2010, dated 2013)
# System: anti-human detection antibody
# Assay: CD3ε peptide ELISA, alkaline phosphatase based, peptides coated on Costar high binding plates
# Parameters: species or system chicken
# Conditions: single peptide coated on plate, plate blank subtracted, both peptides tested under the same conditions
# Source text: The capture antibody of the CDR assay was produce by inoculation with 2 peptides. The sequence of these two peptides is AKAKPVTRGAGA (SEQ ID NO: 1) and LYSGLNQRRI (SEQ ID NO: 2) respectively. To determine the key immune-dominate region of the peptide, 12 variants of original peptide 1 (SEQ ID NO: 1) and 10 variants of original peptide 2 (SEQ ID NO: 2) were made with alanine substitution (or valine when alanine is the original amino acid). These were produced by GenScript, shipped, in solid form, at room temperature, to our lab and were dissolved in 1 ml of 0.05 TBS buffer.
# Single peptides were coated on to Costar high binding 96 well plates at a concentration of 10 μg and 2 μg in 0.05 TBS buffer pH 7.4 in quadruplicate and tested in an alkaline phoshotase based ELISA. Plate blanks were subtracted from the optical densities obtained for each peptide. The peptides are compared to the original by percent of original signal. As noted in Table 1 the twelfth substitution was both an alanine at position twelve and a glutamic acid for threonine at position seven. This was an inadvertent oversight by the manufacturer.
# The results from using a coating concentration of 2 μg/ml were similar.
# The OD for original peptide 1 (SEQ ID NO: 1) was 1.5 and peptide 2 (SEQ ID NO: 2) elicited a signal of 1.0 when tested under the same conditions.
row,Sequence,OD (optical density) by ELISA
1,"AKAKPVTRGAGA (listed as Homo sapiens) [original peptide 1, CD3 epsilon immunogen peptide, 12AA]",1.5
2,"LYSGLNQRRI (listed as Homo sapiens) [peptide 2, CD3 epsilon immunogen peptide, 10AA]",1.0
